B1: bovine uroplakin II (mature) (other)
chain: ELVSVVDSGSGFTVTRLSAYQVTNLAPGTKYYISYLVTKGASTESSREIPMSTFPRRKAESIGLAMARTGGMVVITVLLSVAMFLLVLGLIIALALGARK

What was measured:
[1] = test system: type 1-fimbriated bacteria; experiment: Bacterial (gel) overlay assay: radiolabelled bacteria on SDS/PAGE-resolved uroplakins on nitrocellulose; type: binding, E. coli; details: bovine uroplakins on nitrocellulose, autoradiography
Experimental: Asymmetric unit membrane proteins were resolved by SDS/PAGE (17% acrylamide; acrylamide/bisacrylamide=10:1) and electrophoretically transferred to nitrocellulose. After a brief incubation in 3% BSA in PBS to block the unoccupied sites, the nitrocellulose sheet was incubated with ^35 [S]methionine-labelled bacteria in 2% BSA and 0.1% NaN3. After three washings in PBS, the nitrocellulose was air-dried and autoradiographed.
To determine which of the asymmetric membrane proteins are responsible for this binding, a gel overlay assay was performed. Uroplakins were resolved by SDS/PAGE (cf. FIGS. 5A and 5B), transferred to nitrocellulose, and incubated with radiolabelled bacteria. […] The two major bacterial binding proteins were identified as the two closely related uroplakin proteins, i.e., the 27 kDa-uroplakin Ia and the 28 kDa-uroplakin Ib, according to their sizes and immunoreactivities (FIG. 5B, lanes 1 and 2). […] To determine whether the carbohydrate moieties of uroplakin I proteins were responsible for the binding of the type 1 fimbriae, as one might expect from the inhibitory effects of mannose (cf. FIG. 4), the effects of deglycosylation were tested, results shown in FIGS. 5D and E. Endo H removed about […] of sugars from uroplakin I proteins (cf. FIG. 5D, lanes 2 and 5). […]

[2] = test system: type 1-fimbriated E. coli; experiment: In vitro bacterial adherence assay: binding of 35S-labelled E. coli to immobilized bovine urothelial plaques (asymmetric unit membranes); details: 2x10^5 cpm; for effect of sugars on bacterial binding to bovine asymmetrical unit membranes: E. coli SH48 (type 1 only), preincubated with sugar, 0.2 μg immobilized bovine AUM
Experimental: Purified asymmetric unit membranes were suspended in PBS and incubated in 96-well polystyrene microtiter plates at room temperature for 30 minutes, then at 4° C. for 16 hours. All subsequent steps were carried out at room temperature. After being washed three times with PBS for two hours, the immobilized asymmetric membrane units were incubated with 2% BSA in PBS for two hours, and ^35 S-labelled bacteria were incubated in 2% BSA and 0.1% NaN3 for two hours. The wells were then washed four times with PBS, and the bound bacteria were dissolved in 1% SDS for 30 minutes and quantitated by scintillation counting. All binding studies were performed in triplicate.
Purified bovine urothelial plaques, consisting of asymmetric unit membranes that cover 70-80% of the urothelial apical surface, were immobilized on microtiter wells (0.2 microgram per well). The unoccupied binding sites were blocked with 3% BSA in PBS. BSA was used to coat the control wells. The E. coli strains used were J96, which express type 1 fimbriae as well as P fimbriae carrying the G-1 and G-2 adhesins; SH48, which expresses type 1 fimbriae only; HU849, which expresses P fimbriae carrying G-1 adhesin; IA2, which expresses P fimbriae carrying G-adhesins; and nonfimbriated P678-54.
^35 [S]methionine-labelled bacteria were added to each well (2×10^5 cpm in 10^7 bacteria suspended in PBS). After incubation at 25° C. for two hours, the wells were washed with PBS and the radioactivities of the bound bacteria, dissolved in 1% SDS, were counted. Each value represents the means of triplicates bracketed by the standard deviation (±15%). It should be noted that only the type 1-fimbriated J96 and SH48 strains, but not the P-expressing HU849 and IA2 or the nonfimbriated P678-54, adhered to the asymmetric unit membranes.
In FIG. 1B, the relative contribution of type 1 and P fimbriae in the binding of J96 to asymmetric unit membranes is shown. ^35 S-labelled J96 (2×10^5 cpm) were incubated with immobilized asymmetric unit membranes in the absence or the presence of 2% D-mannose.
To test the effects of sugars on the binding of type-1 fimbriated E. coli to bovine urothelial plaques, 2×10^5 cpm of radiolabeled E. coli (SH48) were preincubated with D-mannose (Man), methyl-α-D-mannopyranoside(MMP), or D-galactose (Gal) before they were incubated with 0.2 μg of immobilized bovine asymmetrical unit membranes.

[3] = target: E. coli strain SH48, expressing type 1 fimbriae only (FimH adhesin) (E. coli, UniProt P08191); experiment: overlay of radiolabelled bacteria on SDS/PAGE-resolved uroplakins on nitrocellulose

Molecule | inhibition of binding of type 1-fimbriated bacteria to uroplakin protein bands [1] | effect of sugars on bacterial binding to bovine asymmetrical unit membranes [2] | binding of J96 to asymmetric unit membranes in the presence of mannose ([2]; E. coli strain J96 (type 1 and P fimbriae), 2% D-mannose, immobilized bovine AUM) | binding result [3]
O=C[C@H](O)[C@@H](O)[C@@H](O)[C@H](O)CO [D-galactose] | not | not |  | 
CO[C@H]1O[C@H](CO)[C@@H](O)[C@H](O)[C@@H]1O [methyl-α-D-mannopyranoside] |  | greatly inhibited |  | 
O=C[C@@H](O)[C@@H](O)[C@H](O)[C@H](O)CO [D-mannose] | inhibited | greatly inhibited | completely blocked | 
B1 |  |  |  | no binding

Source: patent publication US6290959A (New York University, dated 2001)
